Assay results taken from ChEMBL document CHEMBL1124539, “17-Desoxy estrogen analogues” (J Med Chem, 1989).
Values after ≈ are worked out from the molar mass of the structure shown.

Assays:
Rattus norvegicus [1] = assay: In vivo antifertility potency in rats at 200 ug/kg/day; assay type: functional
[2] = molecular target: T1, Estrogen receptor (Rattus norvegicus) (UniProt P06211+Q62986)
Rattus norvegicus [3] = species on record: Rattus norvegicus
Rattus norvegicus [4] = assay: In vivo […] activity in rats; assay type: functional
Estrogen receptor [5] = molecular target: T2, Estrogen receptor (Homo sapiens, UniProt Q92731+P03372); assay: Displacement of [3H]estradiol from estrogen receptor in squirrel monkey; assay type: protein assay
Estrogen receptor [6] = molecular target: T2, Estrogen receptor; assay: Estrogenic effect in rhesus monkey relative to ethynylestradiol; assay type: functional; conditions: Macaca mulatta; target entry is the homologue from another species
Rattus norvegicus [7] = assay: In vivo anti-fertility activity in rat; assay type: functional
Estrogen receptor [8] = molecular target: T3, Estrogen receptor (Rattus norvegicus, UniProt P06211+Q62986)
[9] = molecular target: T1, Estrogen receptor (Rattus norvegicus); remark: listed apart in the source
[10] = molecular target: T1, Estrogen receptor (Rattus norvegicus); remark: listed apart in the source
Estrogen receptor [11] = molecular target: T2, Estrogen receptor; assay: Displacement of [3H]estradiol from estrogen receptor in immature rabbit; assay type: protein assay, Oryctolagus cuniculus; conditions: target entry is the homologue from another species
Estrogen receptor [12] = molecular target: T3, Estrogen receptor; remark: listed apart in the source
[13] = molecular target: T1, Estrogen receptor (Rattus norvegicus); assay: In vivo uterotrophic effect in immature rats; assay type: functional, organism-based
Estrogen receptor [14] = molecular target: T2, Estrogen receptor; conditions: Macaca mulatta
Estrogen receptor [15] = molecular target: T3, Estrogen receptor; assay: Displacement of [3H]estradiol from estrogen receptor in immature rat; assay type: protein assay
Estrogen receptor [16] = molecular target: T3, Estrogen receptor; assay: Displacement of [3H]estradiol from estrogen receptor in mature rat; assay type: protein assay
[17] = Selectivity ratio for antifertility and estrogenic potencies in rats; assay type: functional
[18] = molecular target: T1, Estrogen receptor (Rattus norvegicus); assay: In vivo estrogenic receptor potency relative to ethynylestradiol in rat; assay type: functional, organism-based

`CO/N=C1\CC[C@H]2[C@@H]3CCc4cc(O)ccc4[C@H]3CC[C@]12C` gave an Antifertility potency (Rattus norvegicus [1]) of 4 and an Estrogenic potency [2] of 0.04.

With `CC[C@H]1CC[C@H]2[C@@H]3C(C)Cc4cc(O)ccc4[C@H]3CC[C@]12C` (stereo partly specified) the Estrogenic potency [2] was 15 and the Antifertility potency (Rattus norvegicus [3]) was under 200.

For `CC[Si](CC)(CC)CC[C@H]1CC[C@H]2[C@@H]3CCc4cc(O)ccc4[C@H]3CC[C@]12C`, the Estrogenic potency [2] was 0.27 and the Antifertility potency (Rattus norvegicus [3]) was 10.

Work on `C=C1CC[C@H]2[C@@H]3CCc4cc(O)ccc4[C@H]3[C@H](O)C[C@]12C` yielded an Estrogenic potency [2] of 0.02 and an Antifertility potency (Rattus norvegicus [3]) of 10.

`C#C[C@]1(O)CC[C@H]2[C@@H]3CCc4cc(O)ccc4[C@H]3CC[C@@]21C` [ETHINYL ESTRADIOL] gave an Infertility activity (Rattus norvegicus [4]) of 100 and an Antifertility potency (Rattus norvegicus [3]) of 100.

`CC[C@H]1CC[C@H]2[C@@H]3CCc4cc(O)ccc4[C@H]3CC[C@]12C` (stereo in doubt; 8i) [listing 1 of 2 here] gave an Antifertility potency (Rattus norvegicus [3]) of under 40.

`CC[C@H]1CC[C@H]2[C@@H]3CCc4cc(O)ccc4[C@H]3[C@@H](O)C[C@]12C` gave an EC50 (Estrogen receptor [5]) of 22 µg/mL (≈ 73.2 µM), an Estrogenic effect (Estrogen receptor [6]) of under 8 and an Antifertility activity (Rattus norvegicus [7]) of 20. The EC50 (Estrogen receptor [8]) was 5.6 µg/mL (≈ 18.6 µM), the Estrogenic potency [2] was 0.03 and the Antifertility potency (Rattus norvegicus [3]) was 20. The Uterotrophic effect [9] was 0.04 and the Uterotrophic effect [10] was 2.

`C[C@]12CC[C@@H]3c4ccc(O)cc4CC[C@H]3[C@@H]1CC[C@@H]2C#N` gave an Estrogenic potency [2] of 0.05 and an Antifertility potency (Rattus norvegicus [3]) of under 10.

`C[C@]12CC[C@@H]3c4ccc(O)cc4CC[C@H]3[C@@H]1CCC2=S` showed an Estrogenic potency [2] of 2.4.

For `CC[C@H]1CC[C@H]2[C@@H]3CCc4cc(O)ccc4[C@H]3C(=O)C[C@]12C`, the Antifertility potency (Rattus norvegicus [3]) was over 1000.

For `C=C1CCC2C3C=Cc4cc(O)ccc4C3CCC12C` (stereo unspecified), the Estrogenic potency [2] was 0.04 and the Antifertility potency (Rattus norvegicus [3]) was under 5.

With `CC[C@H]1CC[C@H]2[C@@H]3CCc4cc(O)ccc4[C@H]3[C@@H](OC)C[C@]12C` the Estrogenic potency [2] was 37 and the Antifertility potency (Rattus norvegicus [3]) was over 2000.

In the case of `CC[Si](C#C[C@]1(O)CC[C@H]2[C@@H]3CCc4cc(O)ccc4[C@H]3CC[C@@]21C)(CC)CC`, the Estrogenic potency [2] is reported as 37 and the Antifertility potency (Rattus norvegicus [3]) is reported as 600.

Work on `CCC[C@H]1CC[C@H]2[C@@H]3CCc4cc(O)ccc4[C@H]3CC[C@]12C` yielded an Estrogenic potency [2] of 0.8 and an Antifertility potency (Rattus norvegicus [3]) of 20.

In the case of `CC[C@H]1CC[C@H]2[C@@H]3CCc4cc(O)ccc4[C@H]3CC[C@]12C` (stereo in doubt; 8i) [listing 2 of 2 here], the Estrogenic potency [2] is reported as 0.16.

`CC12CCC3c4ccc(O)cc4CCC3C1C=CC2C#N` (stereo unspecified) showed an Antifertility potency (Rattus norvegicus [1]) of under 4 and an Estrogenic potency [2] of under 0.1.

`COc1ccc2c(c1)CC[C@@H]1[C@@H]2CC[C@@]2(C)[C@H]1CC[C@@]2(O)c1ccccc1` showed an Estrogenic potency [2] of 0.69 and an Antifertility potency (Rattus norvegicus [3]) of 10.

With `CC(=O)[C@H]1CC[C@H]2[C@@H]3CCc4cc(O)ccc4[C@H]3CC[C@]12C` the Estrogenic potency [2] was 0.01 and the Antifertility potency (Rattus norvegicus [3]) was under 4.

Work on `C[C@]12CC[C@@H]3c4ccc(O)cc4CC[C@H]3[C@@H]1CC/C2=N\O` yielded an Antifertility potency (Rattus norvegicus [1]) of 4 and an Estrogenic potency [2] of 0.28.

Work on `CCCC[C@H]1CC[C@H]2[C@@H]3CCc4cc(O)ccc4[C@H]3CC[C@]12C` yielded an Estrogenic potency [2] of 0.4 and an Antifertility potency (Rattus norvegicus [3]) of under 10.

Molecule `C[C@]12CC[C@@H]3c4ccc(O)cc4CC[C@H]3[C@@H]1CC/C2=N\N` has an Estrogenic potency [2] of 1.6 and an Antifertility potency (Rattus norvegicus [3]) of under 10.

With `C=C1CC[C@H]2[C@@H]3[C@H](O)Cc4cc(O)ccc4[C@H]3CC[C@]12C` the Estrogenic potency [2] was 0.1 and the Antifertility potency (Rattus norvegicus [3]) was under 20.

Molecule `COc1ccc2c(c1)CC[C@@H]1[C@@H]2CC[C@]2(C)[C@@H](c3ccccc3)CC[C@@H]12` has an Estrogenic potency [2] of under 0.1 and an Antifertility potency (Rattus norvegicus [3]) of under 4.

`CC[C@H]1CC[C@H]2[C@@H]3CCc4cc(O)ccc4[C@H]3CC[C@]12C` (stereo in doubt; 8b) [listing 1 of 2 here] gave an EC50 (Estrogen receptor [5]) of 60 µg/mL (≈ 211 µM), an EC50 (Estrogen receptor [11]) of 11 µg/mL (≈ 38.7 µM) and an Infertility activity (Rattus norvegicus [4]) of 66. For the same molecule, the EC50 (Estrogen receptor [8]) was 20 µg/mL (≈ 70.3 µM), the EC50 (Estrogen receptor [12]) was 8 µg/mL (≈ 28.1 µM) and the Antifertility potency (Rattus norvegicus [3]) was 66.

`CCC/C=C1\CC[C@H]2[C@@H]3CCc4cc(O)ccc4[C@H]3CC[C@]12C` showed an Estrogenic potency [2] of 0.2 and an Antifertility potency (Rattus norvegicus [3]) of under 20.

`C=C1C[C@]2(C)[C@@H](CC)CC[C@H]2[C@@H]2CCc3cc(O)ccc3[C@@H]12` showed an Estrogenic potency [2] of 64 and an Antifertility potency (Rattus norvegicus [3]) of 400.

With `C[C@]12CC[C@@H]3c4ccc(O)cc4CC[C@H]3[C@@H]1CC/C2=C\C=O` the Estrogenic potency [2] was 0.05 and the Antifertility potency (Rattus norvegicus [3]) was 10.

Work on `C[C@]12CC[C@@H]3c4ccc(O)cc4CC[C@H]3[C@@H]1CC[C@@H]2CO` yielded an Estrogenic potency [2] of 0.03 and an Antifertility potency (Rattus norvegicus [3]) of under 110.

`C[C@]12CC[C@@H]3c4ccc(O)cc4CC[C@H]3[C@@H]1CC/C2=N\Nc1ccccn1` showed an Estrogenic potency [2] of 0.1 and an Antifertility potency (Rattus norvegicus [3]) of under 4.

In the case of `C=C[C@H]1CC[C@H]2[C@@H]3CCc4cc(O)ccc4[C@H]3CC[C@]12C`, the Estrogenic potency [2] is reported as 0.26 and the Antifertility potency (Rattus norvegicus [3]) is reported as 10.

In the case of `COc1ccc2c(c1)CCC1C2CCC2(C)C1C=C[C@@]2(O)c1ccccc1` (stereo partly specified), the Antifertility potency (Rattus norvegicus [1]) is reported as under 10 and the Estrogenic potency [2] is reported as 0.14.

Molecule `C#C[C@]1(O)CC[C@H]2[C@@H]3CCc4cc(O)ccc4[C@H]3[C@@H](O)C[C@@]21C` has an EC50 (Estrogen receptor [5]) of 150 µg/mL (≈ 480 µM), an EC50 (Estrogen receptor [11]) of 8 µg/mL (≈ 25.6 µM) and an Infertility activity (Rattus norvegicus [4]) of 100. For the same molecule, the Infertility activity [13] was 150, the EC50 (Estrogen receptor [8]) was 5.2 µg/mL (≈ 16.6 µM) and the EC50 (Estrogen receptor [12]) was 16 µg/mL (≈ 51.2 µM). For the same molecule, the Estrogenic potency [2] was 120, the Estrogenic effect (Estrogen receptor [14]) was 500 and the Antifertility potency (Rattus norvegicus [3]) was 200. For the same molecule, the Uterotrophic effect [9] was 5 and the Uterotrophic effect [10] was 19.

`CC[C@H]1CC[C@H]2[C@@H]3CCc4cc(O)ccc4[C@H]3[C@@](C)(O)C[C@]12C` showed an Estrogenic potency [2] of 0.05 and an Antifertility potency (Rattus norvegicus [3]) of under 20.

`C/C=C1/CC[C@H]2[C@@H]3CCc4cc(O)ccc4[C@H]3[C@H](O)C[C@]12C` showed an Estrogenic potency [2] of 0.04 and an Antifertility potency (Rattus norvegicus [3]) of under 7.

`CC(F)(F)[C@H]1CC[C@H]2[C@@H]3CCc4cc(O)ccc4[C@H]3CC[C@]12C` showed an Estrogenic potency [2] of 0.09 and an Antifertility potency (Rattus norvegicus [3]) of under 20.

For `C#C[C@H]1CC[C@H]2[C@@H]3CCc4cc(O)ccc4[C@H]3CC[C@]12C`, the Estrogenic potency [2] was 0.07 and the Antifertility potency (Rattus norvegicus [3]) was under 10.

Molecule `C[C@H]1CC[C@H]2[C@@H]3CCc4cc(O)ccc4[C@H]3CC[C@]12C` has an Estrogenic potency [2] of 0.3 and an Antifertility potency (Rattus norvegicus [3]) of 20.

In the case of `C=C(C)[C@H]1CC[C@H]2[C@@H]3CCc4cc(O)ccc4[C@H]3CC[C@]12C`, the Estrogenic potency [2] is reported as 0.08 and the Antifertility potency (Rattus norvegicus [3]) is reported as under 10.

For `C/C=C1\CC[C@H]2[C@@H]3CCc4cc(O)ccc4[C@H]3CC[C@]12C`, the Estrogenic potency [2] was 0.3 and the Antifertility potency (Rattus norvegicus [3]) was 10.

`C#C[C@]1(O)CC[C@H]2[C@@H]3[C@H](O)Cc4cc(O)ccc4[C@H]3CC[C@@]21C` showed an EC50 (Estrogen receptor [5]) of 52 µg/mL (≈ 166 µM), an EC50 (Estrogen receptor [11]) of 36 µg/mL (≈ 115 µM) and an EC50 (Estrogen receptor [15]) of 18 µg/mL (≈ 57.6 µM). It also gave an EC50 (Estrogen receptor [16]) of 6 µg/mL (≈ 19.2 µM), an Antifertility activity (Rattus norvegicus [7]) of 66 and an Estrogenic potency [2] of 0.3. For the same molecule, the Estrogenic effect (Estrogen receptor [14]) was 100, the Antifertility potency (Rattus norvegicus [3]) was 66 and the Uterotrophic effect [9] was 0.1. It also gave a Uterotrophic effect [10] of 10.

For `CC[Si](C#C[C@H]1CC[C@H]2[C@@H]3CCc4cc(O)ccc4[C@H]3CC[C@]12C)(CC)CC`, the Estrogenic potency [2] was 0.04 and the Antifertility potency (Rattus norvegicus [3]) was under 4.

`C=C1CC[C@H]2[C@@H]3CCc4cc(O)ccc4[C@H]3CC[C@]12C` gave an EC50 (Estrogen receptor [11]) of 1.5 µg/mL (≈ 5.59 µM), an EC50 (Estrogen receptor [16]) of 0.8 µg/mL (≈ 2.98 µM) and a Ratio [17] of 80. For the same molecule, the Estrogenic potency [2] was 0.5, the Estrogenic potency ([2]; tested as the 2H-labelled form) was 0.65 and the Antifertility potency (Rattus norvegicus [3]) was 40.

With `CC[C@H]1CC[C@H]2[C@@H]3CCc4cc(O)ccc4[C@H]3CC[C@]12C` (stereo in doubt; 8b) [listing 2 of 2 here] the Estrogenic potency [18] was 1, the Uterotrophic effect [9] was 1 and the Uterotrophic effect [10] was 11.

`C#C[C@]1(O)CC[C@H]2[C@@H]3CCc4cc(O)ccc4[C@H]3[C@@H](OC)C[C@@]21C` [MOXESTROL] showed an Estrogenic potency [2] of 2000 and an Antifertility potency (Rattus norvegicus [3]) of 1000.

`[2H]C([2H])=C1CC[C@H]2[C@@H]3CCc4cc(O)ccc4[C@H]3CC[C@]12C` showed an Antifertility potency (Rattus norvegicus [3]) of 67.

For `CC[C@H]1CC[C@H]2[C@@H]3[C@H](O)Cc4cc(O)ccc4[C@H]3CC[C@]12C`, the Estrogenic potency [2] was 0.04 and the Antifertility potency (Rattus norvegicus [3]) was under 10.

With `CC/C=C1\CC[C@H]2[C@@H]3CCc4cc(O)ccc4[C@H]3CC[C@]12C` the Estrogenic potency [2] was 0.4 and the Antifertility potency (Rattus norvegicus [3]) was under 20.
